The data set is described as follows: Human HepG2 cell viability assay in 384 well format. The data set is classed as toxicity, cell-based. Details: dose 125 nL, time 70.5 hour; cytotoxicity at 70.5 h: concentration not given beside the values. As to conditions: HepG2 cells, read-out: Inhibition.

Regarding `C=C(C)CSc1nnc(CCNC(=O)OC(C)(C)C)o1`, the cytotoxicity at 70.5 h is -12.3%.
For the compound `O=S(=O)(c1ccccc1)N1C(CN2CCOCC2)[C@]2(O)CC[C@H]1CC2` (stereo partly drawn), the cytotoxicity at 70.5 h came out at 16.5%.
As for `O=C1CCNc2ncc(-c3ccc(Cl)cc3)cc2CN1C1CC1`, the figure is -8.11%; as for `CCOC(=O)[C@@H]1[C@@H](c2ccccc2)CN2CCN(C(C)=O)C[C@H]12`, -4.08%.
As for `CCOC(=O)[C@@H]1[C@@H](c2ccccc2)CN2CCN(C(=O)C3CC3)C[C@H]12`, the figure is 16.5%.
The same measure for `CO[C@@H]1CN(C)S(=O)(=O)[C@@]12CCN(Cc1ccccc1)C2`: -7.27%; for `CO[C@@H]1CN(c2ccccc2)S(=O)(=O)[C@@]12CCN(C)C2`: -7.99%; for `COC(=O)N1CC[C@@]2(C1)[C@H](OC)CN(c1ccccc1)S2(=O)=O`: -11.4%.
For `CO[C@@H]1CN(c2ccccc2)S(=O)(=O)[C@@]12CCN(S(C)(=O)=O)C2`, the cytotoxicity at 70.5 h turned out to be 15.4%.
Turning to `COCC(O)CN1CCC(=O)N(Cc2ccccc2)Cc2ccccc21` (stereo not drawn), the cytotoxicity at 70.5 h was -5.42%.
The same measure for `COCC(O)CN1CCC(=O)N(CC(=O)C(C)(C)C)Cc2ccccc21` (stereo not drawn): -4.8%; for `COCCN1CC(O)CN(C(=O)c2cccc(C(F)(F)F)c2)CC1=O` (stereo not drawn): -0.767%; for `COc1ccc(CN2CC(O)CN(C(=O)c3ccccc3)CC2=O)cc1` (stereo not drawn): 7.16%.
As for `COc1ccc(CN2CC(O)CN(C(=O)C3CCC3)CC2=O)cc1` (stereo not drawn), the figure is -0.603%.
The same measure for `Cc1ccc(C(=O)N2CC(=O)N(Cc3cccs3)CC(O)C2)cc1` (stereo not drawn): -0.413%.
In the case of `CSc1ccc(C(=O)N2CC(=O)N(Cc3ccccc3)CC(O)C2)cc1` (stereo not drawn), the cytotoxicity at 70.5 h worked out at 0.216%.
As for `COc1ccc(C(=O)N2CC(=O)N(C3CCC3)CC(O)C2)c(OC)c1` (stereo not drawn), the figure is -1.09%.
The same measure for `O=C(c1cccc(C(F)(F)F)c1)N1CC(=O)N(C2CCC2)CC(O)C1` (stereo not drawn): -7.16%.
The same measure for `COc1ccc(C(=O)N2CC(=O)N(CC3CC3)CC(O)C2)cc1` (stereo not drawn): -4%; for `COc1ccccc1C(=O)N1CC(=O)N(CC2CC2)CC(O)C1` (stereo not drawn): -0.352%.
`CCOC(=O)N1CCC(OC)c2ccccc2N(CC(=O)NC)C(=O)C1` (stereo not drawn): the cytotoxicity at 70.5 h is -3.27%.
As for `COCCOC(=O)N1CCN2C[C@@H](CO)[C@H](c3ccccc3)[C@H]2C1`, the figure is 0.912%; as for `COC(=O)N1CCN2C[C@H](CO)[C@@H](c3ccccc3)[C@H]2C1`, -4.89%; as for `COc1ccc2c3c1CN(C(C)=O)CC3=CC(C)(C)CO2`, 0.846%.
As for `CCNC(=O)N1CC2=CC(C)(C)COc3ccc(OC)c(c32)C1`, the cytotoxicity at 70.5 h was -6.22%.
As to `CC(C)CC(=O)N1CC(=O)N(CCc2ccccc2)CC(O)C1` (stereo not drawn), the cytotoxicity at 70.5 h was found to be 24%.
In the case of `CCS(=O)(=O)N1CC(=O)N(Cc2ccccc2OC)CC(O)C1` (stereo not drawn), the cytotoxicity at 70.5 h turned out to be 17.6%.
Turning to `CCCS(=O)(=O)N1CC(=O)N(Cc2cccc(OC)c2OC)CC(O)C1` (stereo not drawn), the cytotoxicity at 70.5 h is 9.04%.
For `COc1cccc(CN2CC(O)CN(S(C)(=O)=O)CC2=O)c1OC` (stereo not drawn), the cytotoxicity at 70.5 h amounted to 4.13%.
The same measure for `CCOC(=O)N1CC(=O)N(Cc2cccc(OC)c2OC)CC(O)C1` (stereo not drawn): -5.06%; for `COC1CN(C(=O)OCC(C)C)CCC(=O)N(C)c2ccccc21` (stereo not drawn): -4.55%.
As to `COC1CN(C(=O)Nc2ccccc2)CCC(=O)N(C)c2ccccc21` (stereo not drawn), the cytotoxicity at 70.5 h is -0.759%.
The same measure for `COC1CN(C(=O)Cc2cccs2)CCC(=O)N(C)c2ccccc21` (stereo not drawn): 2.17%.
The same measure for `CC(=O)N1CCC(=O)N(C2CCCC2)Cc2ccccc21`: 7.97%; for `COCC(=O)N1CCC(=O)N(C2CCCC2)Cc2ccccc21`: 6.82%.
Regarding `Cc1nc2ccn(C(C)C)c(=O)c2cc1C(=O)O`, the cytotoxicity at 70.5 h was -24.7%.
The same measure for `CC(C)Cc1cc(C(=O)O)nc2[nH]c(=O)[nH]c(=O)c12`: -14.3%; for `O=C(O)CCn1ccc(=O)c2ccccc21`: -3.76%; for `O=C(O)CCC(=O)N1CCC(c2noc3cc(F)ccc23)CC1`: -10.8%.
Consider `O=C(O)Cn1ccc(=O)c2cc(F)ccc21`, for which the cytotoxicity at 70.5 h was -10.1%.
With `Cc1nc(Oc2ccccc2F)sc1C(=O)O`, the cytotoxicity at 70.5 h is -11.4%.
`Cc1cccc(S(=O)(=O)N2C[C@H]3C[C@H](C(=O)NC4CCC4)[C@@H](C2)O3)c1`: the cytotoxicity at 70.5 h is -10.5%.
The same measure for `CC(C)NC(=O)C1CCC2(CCN(c3ncccn3)CC2)CO1` (stereo not drawn): -9.99%.
The same measure for `CCC(C)N1CCc2c(C(=O)N(C)Cc3ccccn3)nn(C)c2C1` (stereo not drawn): -7.34%.
The same measure for `Cc1cccc(S(=O)(=O)N2C[C@H]3C[C@H](C(=O)NCC4CC4)[C@@H](C2)O3)c1`: -0.444%.
`Cc1cccc(S(=O)(=O)N2C[C@H]3C[C@H](C(=O)N(C)C)[C@@H](C2)O3)c1`: the cytotoxicity at 70.5 h was found to be 1.15%.
Regarding `CC(=O)NCc1noc2c1CN(Cc1cnn(C)c1)CC2`, the cytotoxicity at 70.5 h was found to be 2.69%.
For the compound `COCC(=O)N1CCC2(CC1)CC(OC)CO2` (stereo not drawn), the cytotoxicity at 70.5 h was -7.5%.
The same measure for `CCNC(=O)c1ccc2ccc(N(CC)CC)n2c1`: -8.54%; for `Cn1cc(-c2cnc3n2CCC32CCN(S(C)(=O)=O)CC2)cn1`: -0.823%.
As for `CCC(CC)NC(=O)c1ccc2c(c1)C(c1nc[nH]n1)CN2S(C)(=O)=O` (stereo not drawn), the figure is -7.51%; as for `CCN(CC)[C@@H]1CN(S(=O)(=O)c2cn(C)cn2)[C@@H]2CCCO[C@H]12`, 26.4%.
As for `COCC(=O)N1CCC2(CC1)CC(N1CCOCC1)c1ccc(C)cc12` (stereo not drawn), the figure is 0.692%; as for `c1ccc(N2CCc3ncnc(C4CC4)c3CC2)nc1`, -12.5%.
Regarding `CS(=O)(=O)N1CC(c2nc[nH]n2)c2cc(C(=O)NC3CCCC3)ccc21` (stereo not drawn), the cytotoxicity at 70.5 h was -20.4%.
The same measure for `CCc1nc(-c2noc3ccc(C(=O)N(C)CCOC)cc23)co1`: -12.2%.
For `COc1ccc(CN2CCO[C@H]3CN(C(C)=O)CC[C@H]3C2=O)cc1`, the cytotoxicity at 70.5 h was determined as 19.5%.
With `CO[C@H]1CN(C(=O)c2ccc3c(c2)OCO3)[C@@H]2COC[C@H]12`, the cytotoxicity at 70.5 h was 0.574%.
Consider `COCC(=O)N1CCC2(CC1)CC(OC)c1ccc(F)cc12` (stereo not drawn), for which the cytotoxicity at 70.5 h is -0.706%.
For the compound `CS(=O)(=O)N1CCN(CC2CC2)c2ncccc2C1`, the cytotoxicity at 70.5 h is -9.41%.
In the case of `O=C(C1CC=CC1)N1CCC2(CC1)CNCCO2`, the cytotoxicity at 70.5 h is -5.99%.
As for `COCC(=O)N1CCC2(CCc3ccc(F)cc32)CC1`, the figure is -2.02%; as for `CC(C)NC(=O)[C@@H]1CC[C@@H]2[C@@H](CCN2Cc2ccc3ccccc3n2)O1`, -8.11%.
As for `CCC(C)N1Cc2c(C(=O)N3CCCC3)nn(C)c2C1` (stereo not drawn), the figure is -2.34%; as for `Cc1ccc(NC2COC3(CCN(CC(C)C)CC3)C2)nn1` (stereo not drawn), 27.8%.
Turning to `CN1CCc2ncc(CNc3cc(N(C)C)ncn3)n2CC1`, the cytotoxicity at 70.5 h was -11.9%.
The same measure for `CCS(=O)(=O)N1CCC2(CCC(N3CCCC3)c3ccccc32)CC1` (stereo not drawn): -10.6%; for `OCCOCc1nnn2c1CN(c1ncccn1)CCC2`: 8.18%; for `CC(C)CCN1Cc2c(C(=O)N3CCCC3)nn(C)c2C1`: 15%.
As for `CCc1cnc(N2C[C@@H](NC(=O)c3cscn3)[C@H]3COC[C@H]32)nc1`, the figure is -11.1%; as for `O=C(c1ccccc1)N1CCS(=O)(=O)[C@@H]2CCNCC[C@@H]21`, 3.07%.
Take `CN1CCC(c2nnc3ccc(C(=O)N4CCCCC4)cn23)C1` (stereo not drawn): the cytotoxicity at 70.5 h was -9.66%.
As for `Fc1cnc(N2CCCn3c(nnc3Cn3cccc3)C2)nc1`, the cytotoxicity at 70.5 h is 27.5%.
The same measure for `CC(C)CO[C@H]1CN(S(=O)(=O)c2cn(C)cn2)[C@@H]2CCCO[C@H]12`: 18%.
In the case of `O=C(c1cccc(Cl)c1)N1CCCC2(CCCNC2)C1` (stereo not drawn), the cytotoxicity at 70.5 h is -1.15%.
Consider `CC(C)n1nc(CNc2ncccn2)c2c1CN(C1CCOCC1)CC2`, for which the cytotoxicity at 70.5 h is -17.3%.
The same measure for `Cc1cccc(N2CCc3ncnc(C4CC4)c3CC2)n1`: -10.3%; for `O=S(=O)(NC[C@]12COC[C@H]1CN(c1ncc(F)cn1)C2)C1CC1`: 19.1%; for `CCN1CCOCC12CCN(C(=O)c1ccsc1)CC2`: -7.84%.
As for `CCS(=O)(=O)N1CCCC2(CCCN2Cc2cccc(F)c2)C1` (stereo not drawn), the figure is -8.06%.
The same measure for `CC(=O)N1CC[C@H]2[C@H](C[C@@H](Cn3cncn3)N2c2nccs2)C1`: -8.31%; for `CCn1ncc2c1C(COCC1CC1)N(C(=O)c1ccncn1)CC2` (stereo not drawn): -11.3%.
As to `CC(=O)NCc1noc2c1CN(CCN1CCCC1)CC2`, the cytotoxicity at 70.5 h was -8.27%.
As for `Cc1cncc(C(=O)N2CC[C@@H]3[C@H]2CCC(=O)N3CCN(C)C)c1`, the figure is 2.21%.
As for `CN(C)CCN1CCO[C@H]2CCN(C(=O)c3cccs3)CC[C@@H]21`, the figure is 32.1%; as for `Fc1cnc(N2CCCn3c(CN4CCOCC4)nnc3C2)nc1`, 25.5%; as for `Cn1nc(CN2CCOCC2)c2c1CN(Cc1ccsc1)C2`, -5.85%.
As for `Cc1ccc(CN2C[C@@H](N(C)C)[C@H]3OCCC[C@H]32)o1`, the figure is 1.56%.
`CN(Cc1ccccn1)C(=O)c1nn(C)c2c1CCN(CC1CC1)C2`: the cytotoxicity at 70.5 h is -1.96%.
Turning to `CN1CCN(C2COC3(CCN(CC4CC4)CC3)C2)CC1` (stereo not drawn), the cytotoxicity at 70.5 h amounted to 0.151%.
As for `Cc1cnc(N2C[C@H]3C[C@H](C(=O)N4CCN(C)CC4)N(C)[C@H]3C2)nc1`, the figure is -9.1%; as for `Fc1cccc(O[C@@H]2C[C@H]3CN(Cc4ccncc4)CCN3C2)c1`, -15.6%; as for `CC(C)N1[C@H](Cn2cccn2)C[C@@H]2CN(Cc3ccoc3)CC[C@@H]21`, -13.4%.

The record behind these values is ChEMBL document CHEMBL3507680, “University of Dundee, Gates Library screen for HepG2 cell viability”.
